Experimental data taken from publication PMC10028261, “Structural and ligand binding analysis of the pet allergens Can f 1 and Fel d 7” (Frontiers in Allergy, 2023).

Experiments:
Type in all cases: binding
Can f 1 [1] = molecular target: T1, Can f 1 (Canis lupus, UniProt O18873); test: ANS displacement assay; details: 2 uM ANS, 0.2 mg/ml protein, RT, 1 h; fatty acid 10 uM (Methods) or 1 uM (Figure 4 legend)
T1 construct: wild-type (C118S gene reverted to Cys118), signal peptide absent, borders aa 27-171 for the C118S crystal construct; 6His-GST tag cut with TEV; E. coli BL21(DE3)
T1 sequence (O18873 27-171): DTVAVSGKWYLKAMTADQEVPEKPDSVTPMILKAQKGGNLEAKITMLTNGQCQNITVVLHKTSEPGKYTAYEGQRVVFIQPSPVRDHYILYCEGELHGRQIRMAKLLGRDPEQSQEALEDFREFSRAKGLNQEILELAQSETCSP

Fel d 7 [2] = molecular target: T2, Fel d 7 (Felis catus, UniProt E5D2Z5); test: ANS displacement assay; details: 2 uM ANS, 0.2 mg/ml protein, RT, 1 h; fatty acid 10 uM (Methods) or 1 uM (Figure 4 legend)
T2 construct: wild-type, signal peptide absent, aa 27-170 for the crystal construct; GST tag cut with TEV; E. coli BL21(DE3)
T2 sequence (E5D2Z5 27-170): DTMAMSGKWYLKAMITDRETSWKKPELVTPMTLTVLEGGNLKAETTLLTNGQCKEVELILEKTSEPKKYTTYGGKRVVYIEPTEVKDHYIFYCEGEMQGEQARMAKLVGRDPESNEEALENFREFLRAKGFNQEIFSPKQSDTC

Fel d 7 [3] = molecular target: T2, Fel d 7; test: […]-methyl HSQC NMR stoichiometry; details: labelled compound (methyl-13C-oleate); annealed at 80°C, excess lipid removed, PBS; cholate extraction
Can f 1 [4] = molecular target: T1, Can f 1; test: […]-methyl HSQC NMR stoichiometry; details: labelled compound (methyl-13C-oleate); annealed at 80°C, excess lipid removed, PBS; cholate extraction

| Compound | % fluorescence reduction (Can f 1 [1]) [%] | % fluorescence reduction (Fel d 7 [2]) [%] | stoichiometry (oleate:protein) (Fel d 7 [3]) | stoichiometry (oleate:protein) (Can f 1 [4]) |
| --- | --- | --- | --- | --- |
| CC/C=C\C/C=C\C/C=C\CCCCCCCC(=O)N[C@@H](Cc1ccc(O)cc1)C(=O)O [A2, N-(α-Linolenoyl) tyrosine] | > 50 | > 50 | – | – |
| CCCCCCCC/C=C\CCCCCCCC(=O)N[C@@H](CO)C(=O)O [A4, N-Oleoyl-L-serine] | > 50 | > 50 | – | – |
| CCCCC/C=C\C/C=C\CCCCCCCC(=O)NCC(=O)O [D10, Linoleoyl glycine] | > 50 | > 50 | – | – |
| CCCCCCCC/C=C\CCCCCCCC(=O)O [oleic acid] | – | – | 2:1 | 2:1 |
